Structures are written as SMILES.

Holding throughout (assay type): cell-based
The test system of one test is catalase. As to the kind of experiment: Catalase activity in cultured retinal pigment epithelial cells. To be noted: 0, 15, 30 or 100 μM, compared with zinc acetate, zinc chloride, zinc sulfate. On the procedure:
(§1) The biological efficacy was tested by adding 0, 15, 30 or 100 μM of zinc cysteine to cultured retinal pigment epithelial cells in comparison to zinc salts (zinc acetate, zinc chloride, and zinc sulfate).
(§2) The complex of zinc-cysteine increased the activity of antioxidant enzymes catalase and glutathione peroxidase, and the antioxidant protein metallothionein in cultured retinal pigment epithelial cells more efficiently and potently than zinc acetate, zinc chloride, and zinc sulfate. […] The zinc-cysteine complex may be readily absorbed and distributed inside the cell to provide beneficial needs in regulating the antioxidant economy.

For the next test, the system named is metallothionein. The test is described as follows: Metallothionein in cultured retinal pigment epithelial cells. To be noted: 0, 15, 30 or 100 μM, compared with zinc acetate, zinc chloride, zinc sulfate. On the procedure: as §1, §2
A further test relates to glutathione peroxidase. As to the kind of experiment: Glutathione peroxidase activity in cultured retinal pigment epithelial cells. To be noted: 0, 15, 30 or 100 μM, compared with zinc acetate, zinc chloride, zinc sulfate. On the procedure: as §1, §2
Another test has as its system RPE cells. As to the kind of experiment: Protection of RPE cells from increasing hydrogen peroxide concentrations. To be noted: compared with the zinc salts (zinc acetate, zinc chloride, zinc sulfate). On the procedure: as §1, §2

As for `N[C@@H](CS)C(=O)O` [cysteine], the “activity of antioxidant enzyme catalase” value with catalase is “did not have an effect”. For the same molecule, in the test with metallothionein, the antioxidant protein metallothionein entry is reported as “did not have an effect”.

For the molecule `NC1C[S][Zn][O]C1=O` (stereo not drawn) [zinc-cysteine, zinc-monocysteine complex], the “activity of antioxidant enzyme glutathione peroxidase” value with glutathione peroxidase is “increased”. For the same molecule, the “activity of antioxidant enzyme catalase” value with catalase is “increased”. Further, in the test on RPE cells, the “protecting RPE cells from increasing hydrogen peroxide concentrations” value is given as “more potent”. Besides, the antioxidant protein metallothionein entry with metallothionein was “increased”.

(Values after patent US8067627B2, “Zinc-monocysteine complex and method of using zinc-cysteine complexes” (priority 2000, dated 2011).)
